Source: article PMC9023544, “Ketone-selenoesters as potential anticancer and multidrug resistance modulation agents in 2D and 3D ovarian and breast cancer in vitro models” (Scientific Reports, 2022)

Legend:
HOC/ADR = test: Sensitization of MDR cell line to Adriamycin; type: cell-based, human; conditions: IC50 of Adriamycin / IC50 of Adriamycin with IC10 dose of compound
Method: To determine the sensitization potential of compounds, HOC/ADR and MCF-7/PAX were used. Based on the cytotoxic potential of the compounds against several cancer and non-cancerous cell lines (Table 1), the concentrations of applied compounds were adjusted. IC10 values was considered as the concentrations, which should not decrease the cell viability under 90%. After the addition of compounds, Adriamycin (concentration range 0.1–20 µM) and paclitaxel (concentration range 0.1–10 µM) were added to HOC/ADR and MCF-7/PAX, respectively. The sensitization potential of the compounds was determined as the ratio of the IC50 of cytostatic agent (Adriamycin/paclitaxel) to the IC50 of cytostatic agent affected by the compound in concentration corresponding to the IC10 value. Fold change greater than 1 indicated synergic effect of cytostatic agent and the tested compound.
After that, the plates were washed 1× with PBS and fresh DMEM medium supplemented with tested compounds at final concentration corresponding their IC10 value was added, except for positive control wells. Subsequently, Adriamycin (concentration range 0.1–20 µM) or paclitaxel (concentration range 0.1–10 µM) was added to the appropriate cell line for 72 h. After incubation, the cells were washed 1× with PBS and the resazurin solution (0.03 mg/mL) was added to evaluate the cell viability as described above. IC50 values of cytostatics were calculated for both the control and compounds; a fold change was counted up. When this fold change is higher than 1 indicates a synergism between the tested cytostatic agent and the compound, while a fold change lower than 1 means an antagonism. Fold change=IC50value of cytostatic treated cells only/IC50value of cytostatic treated cells in addition of the compound

[1] = tested on: HEK293 (human embryonic kidney cell line); test: Cytotoxic activity, non-cancerous cell line, resazurin, 72 h; type: cell-based; conditions: for IC50: Homo sapiens, HEK293, 72 h, mean ± SEM, n=3
Method: The cytotoxic potential of selenoesters was tested on several cancer cell lines—HOC (human parental ovarian adenocarcinoma, HOC, A2780, Sigma-Aldrich), HOC/ADR (sub-line resistant to Adriamycin, A2780/ADR, Sigma-Aldrich), MCF-7 (human breast adenocarcinoma, ATCC®, HTB-22TM), MCF-7/PAX (resistant sub-line established by gradual adaptation of parental cells to increased concentration of paclitaxel; kindly provided by Division of Cell and Molecular Biology, Third Faculty of Medicine, Charles University, Czech Republic) and on one non-cancerous cell line—HEK293 (human embryonic kidney cell line, Leibniz Institute, DSMZ-German Collection of Microorganisms and Cell Cultures GmbH). All mentioned cell lines were authenticated using short tandem repeat (STR) profiling. Cell lines were cultivated in DMEM medium (10% FBS, 1× antibiotic antimycotic solution), except for HEK293 cell line which was cultivated without antibiotics. In case of the resistant cell lines, the medium was supplemented with a required concentration of cytostatics to maintain resistance (HOC/ADR—100 nM Adriamycin; MCF-7/PAX—300 nM paclitaxel). All cells were cultivated in a CO2 incubator (5% CO2, 37 °C, Thermo Fisher Scientific).
For the experiment, the cells at passage number 5–20 were seeded at a 1 × 10^5 cells/mL concentration into 96-well plates to 100 µL final volume. The final concentration range of the compounds was 0.63–20 µM. After an incubation of 72 h, the plates were washed 1× with PBS and resazurin solution (0.03 mg/mL in 1× PBS) was added. After 1 h of incubation, the fluorescence signal was recorded (ex./em. 560/590 nm).
The selectivity index (SI) was determined as the ratio of IC50 value for the non-cancerous cells to IC50 for the cancer cell line. For resistant cell lines, the collateral sensitivity (CS) was calculated as the ratio of IC50 value in sensitive tumour cells to IC50 in the resistant cancer cell line. In both cases, the selectivity is considered as: (1) strongly selective when SI or CS value is above 6, (2) moderately selective when SI or CS is between 3 and 6, (3) slightly selective when SI or CS is between 1 and 3 and (4) non-selective when SI or CS is less than 1[23].

MCF-7 spheroids = test: 3D spheroid formation; type: cell-based, human; conditions: 1 µM, whole treatment (24–72 h)
Method: (§1) To monitor the effect of selenoesters on spheroid formation, HOC, HOC/ADR, MCF-7 and MCF-7/PAX cell lines were used. 24 h after HOC cells’ inoculation, the diameter of formed spheroids was measured. The spheroids with diameters above 200 µm are characterized by the presence of a concentration gradient of oxygen, nutrients, and metabolites. The ovarian cancer cells (HOC, HOC/ADR) formed aggregates in which single cells could be recognized (Figs. 3, 4). In contrast, breast cancer cell lines (MCF-7, MCF-7/PAX) (Figs. 5, 6) formed compact spheroids where individual cells could not be distinguished because of close cell–cell interactions. According to this fact, the easier penetration and action of compounds into spheroids of ovarian cancer cells is expected. Upon selenoesters’ addition, the images of spheroids were taken regularly to determine their areas relative to the control spheroids in medium containing the solvent (1% V/V DMSO).
(§2) Human ovarian and breast cancer cells (parental and resistant) were seeded into U bottom 96-well plates (VWR, Radnor, Pennsylvania, United States) coated with 0.8% SeaKem LE Agarose at a cell density 0.5 × 10^5 cells/mL (HOC, HOC/ADR) and 1 × 10^5 cell/mL (MCF-7, MCF-7/PAX) in 100 µL of medium with appropriate cytostatic agent. After 24 h, the plates were enriched with 100 µL of medium with tested compounds K3, K4, K7 at the final concentration of 1 µM, except for control cells (100 µL medium with 1% V/V DMSO). Spheroids were recorded 0; 24; 48 and 72 h after exposure to tested compounds by using the light microscope Axio Vert. A1 (Zeiss, Jena, Germany) with photo documentation equipment, Axiocam ICC 1 and Axio Vision 4.8 software (Zeiss), and the spheroid areas were determined by using ImageJ (National Institute of Health, Bethesda, Maryland, United States). Subsequently, a spheroid growth was calculated according to equation: Spheroid area%=SAS at t/SAC at t×100 where SAS represents the area of spheroids treated with the compound; SAC is the control spheroid area; and the exposure time (t = 0; 24; 48; 72 h).

HOC/ADR spheroids = test: 3D spheroid formation; type: cell-based, human; conditions: 1 µM
Method: as §1, §2

HOC spheroids = test: 3D spheroid formation; type: cell-based; conditions: Homo sapiens, 24 h, read-out: inhibition of HOC spheroid growth
Method: as §1, with “According to this fact, the easier penetration and action of compounds into spheroids of ovarian cancer cells is expected. Upon selenoesters’ addition, the images of spheroids were taken regularly to determine their areas relative to the control spheroids in medium containing the solvent (1% V/V DMSO).” left out
Human ovarian and breast cancer cells (parental and resistant) were seeded into U bottom 96-well plates (VWR, Radnor, Pennsylvania, United States) coated with 0.8% SeaKem LE Agarose at a cell density 0.5 × 10^5 cells/mL (HOC, HOC/ADR) and 1 × 10^5 cell/mL (MCF-7, MCF-7/PAX) in 100 µL of medium with appropriate cytostatic agent. […] Spheroids were recorded 0; 24; 48 and 72 h after exposure to tested compounds by using the light microscope Axio Vert. A1 (Zeiss, Jena, Germany) with photo documentation equipment, Axiocam ICC 1 and Axio Vision 4.8 software (Zeiss), and the spheroid areas were determined by using ImageJ (National Institute of Health, Bethesda, Maryland, United States). […]

MCF-7/PAX spheroids = test: 3D spheroid formation; type: cell-based, human; conditions: 1 µM, first 24 h
Method: as §1, §2

Compound	Fold change (HOC/ADR)	IC50 [1] [µM]	MCF-7 spheroid growth relative to control (MCF-7 spheroids)	decrease of HOC/ADR spheroid growth (HOC/ADR spheroids; first 24 h) [%]	selectivity indexes between HEK293 and cancer cell lines ([1]; all cancer cell lines tested)	inhibition at 1 µM (HOC spheroids) [%]	effect on MCF-7/PAX spheroid growth (in words) (MCF-7/PAX spheroids)	HOC/ADR spheroid area compared to the control (HOC/ADR spheroids) [%]
CC(=O)C[Se]C(=O)c1ccc(Br)cc1 [K3]	(1.4 ± 0.1)×	2.4	under 80%	45	–	–	–	–
CC(=O)C[Se]C(=O)c1ccccc1C(F)(F)F [K4]	(1.4 ± 0.1)×	5.4 ± 0.4	–	–	highest selectivity	–	–	–
CC(=O)C[Se]C(=O)c1ccc(C(C)(C)C)cc1 [K7]	–	1.5 ± 0.1	–	–	–	> 40	slowed down	75
